In ChEMBL document CHEMBL1142850, “Hepatitis C virus NS3-4A serine protease inhibitors: use of a P2-P1 cyclopropyl alanine combination for improved potency” (Bioorg Med Chem Lett, 2005):
Numbered stars: 1 amine (or outer) side, 2 acyl side, 3 side chain; on linkers, the order of the positions; unused ones are H or OH. Square brackets hold non-standard residues; d marks the D form. Peptide text beside a SMILES is read from it. * marks the point of attachment. Isobutyloxycarbonyl = CC(C)COC(=O)*; Ala(cPr) = N[C@@H](CC1CC1)C(=O)O; X1 = CCCC(N[*:1])C(=O)C(=O)[*:2]; Ahp(2) = CCCCC[C@H](N)C(=O)O; Cba = N[C@@H](CC1CCC1)C(=O)O; Chg = N[C@H](C(=O)O)C1CCCCC1; Phg = N[C@H](C(=O)O)c1ccccc1; hLeu = CC(C)CC[C@H](N)C(=O)O

The molecules below were run against NS3 (Hepatitis C virus, UniProt A3EZJ3) (assay: Inhibitory activity against HCV NS3 serine protease 1).
NS3, sequence (A3EZJ3 whole entry): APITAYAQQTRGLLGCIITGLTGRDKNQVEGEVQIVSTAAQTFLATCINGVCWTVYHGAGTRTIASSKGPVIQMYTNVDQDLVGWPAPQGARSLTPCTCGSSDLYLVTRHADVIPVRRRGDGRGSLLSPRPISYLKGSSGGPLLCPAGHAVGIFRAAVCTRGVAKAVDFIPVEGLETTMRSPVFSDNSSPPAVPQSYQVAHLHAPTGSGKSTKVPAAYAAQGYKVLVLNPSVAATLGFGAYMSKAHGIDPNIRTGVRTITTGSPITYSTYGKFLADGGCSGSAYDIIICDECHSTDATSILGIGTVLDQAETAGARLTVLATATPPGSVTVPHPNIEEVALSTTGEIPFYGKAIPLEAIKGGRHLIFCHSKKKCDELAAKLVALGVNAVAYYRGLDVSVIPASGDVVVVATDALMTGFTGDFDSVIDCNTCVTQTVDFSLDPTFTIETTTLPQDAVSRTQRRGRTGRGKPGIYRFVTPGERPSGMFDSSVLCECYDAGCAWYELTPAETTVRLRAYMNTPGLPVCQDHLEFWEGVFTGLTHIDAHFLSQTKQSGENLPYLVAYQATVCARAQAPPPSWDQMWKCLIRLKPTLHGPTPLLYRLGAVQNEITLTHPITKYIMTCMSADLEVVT
Parameters: species or system Hepacivirus hominis

SMILES | Ki
CCCC(NC(=O)[C@H](CC1OCCO1)NC(=O)[C@@H](NC(=O)OCC(C)C)C1CCCCC1)C(=O)C(=O)NCC(=O)N[C@H](C(=O)O)c1ccccc1 (some centres undefined) | 0.3 µM
CCCC(NC(=O)[C@H](CC1SCCCS1)NC(=O)[C@@H](NC(=O)OCC(C)C)C1CCCCC1)C(=O)C(=O)NCC(=O)N[C@H](C(=O)O)c1ccccc1 (some centres undefined) | 0.25 µM
CCCC(NC(=O)[C@H](CC1SCc2ccccc2CS1)NC(=O)[C@@H](NC(=O)OCC(C)C)C1CCCCC1)C(=O)C(=O)NCC(=O)N[C@H](C(=O)O)c1ccccc1 (some centres undefined) | 2.3 µM
CCCC(NC(=O)[C@H](CC1OCCCO1)NC(=O)[C@@H](NC(=O)OCC(C)C)C1CCCCC1)C(=O)C(=O)NCC(=O)N[C@H](C(=O)O)c1ccccc1 (some centres undefined) | 0.43 µM
CCCCC[C@H](NC(=O)[C@@H](NC(=O)OCC(C)C)C1CCCCC1)C(=O)NC(CCC)C(=O)C(=O)NCC(=O)N[C@H](C(=O)O)c1ccccc1 (some centres undefined) (Isobutyloxycarbonyl-[Chg][Ahp(2)][X1]G[Phg]-OH) | 0.3 µM
CCCC(NC(=O)[C@H](CCC(C)C)NC(=O)[C@@H](NC(=O)OCC(C)C)C1CCCCC1)C(=O)C(=O)NCC(=O)N[C@H](C(=O)O)c1ccccc1 (some centres undefined) (Isobutyloxycarbonyl-[Chg][hLeu][X1]G[Phg]-OH) | 0.31 µM

These reach a lower Ki. Values come first.

Ki | SMILES
0.14 µM | CCCC(NC(=O)[C@H](CC1CCC1)NC(=O)[C@@H](NC(=O)OCC(C)C)C1CCCCC1)C(=O)C(=O)NCC(=O)N[C@H](C(=O)O)c1ccccc1 (some centres undefined) (Isobutyloxycarbonyl-[Chg][Cba][X1]G[Phg]-OH)
0.09 µM | CCCC(NC(=O)[C@H](CC1SCCS1)NC(=O)[C@@H](NC(=O)OCC(C)C)C1CCCCC1)C(=O)C(=O)NCC(=O)N[C@H](C(=O)O)c1ccccc1 (some centres undefined)
0.05 µM | CCCC(NC(=O)[C@H](CC1CC1)NC(=O)[C@@H](NC(=O)OCC(C)C)C1CCCCC1)C(=O)C(=O)NCC(=O)N[C@H](C(=O)O)c1ccccc1 (some centres undefined) (Isobutyloxycarbonyl-[Chg][Ala(cPr)][X1]G[Phg]-OH)
